The values below come from patent publication US12163158B2, “Organoid and method for producing same” (priority 2017, dated 2024).

What all share (assay type): cell-based
The subject of assay [1] is mouse ES cell-derived heart organoid. Description: Ca2+ measurement of drug responsiveness in heart organoids. The conditions noted are these: 1 μM isoproterenol vs absence (control); 15-second recording; Fluo8 fluorescence; FIG. 40. Here is the method:
The heart organoids were washed twice with PBS and immersed in a 4 μM green fluorescent intracellular calcium indicator Fluo8 AM (acetoxymethyl) or Fluo8 AM/F127, freshly diluted with Tyrode's solution containing 1.8 mM Ca^2+, at 37° C. for 15 to 30 minutes. Thereafter, the heart organoids were washed twice with PBS, treated with 200 μL of Tyrode's solution, mounted, and observed with a fluorescence microscope (manufactured by Keyence Corporation). Specifically, first, Ca^2+ measurement was performed by the method described above (Ca Measurement) in the presence and absence (control) of 1 μM isoproterenol, which is an adrenergic […] agonist. A 15-second recording (movie) was taken, and image analysis was performed to detect the change in the intensity (Y-axis) of the fluorescent signal with time (X-axis).

The subject of assay [2] is mouse ES cell-derived embryoid bodies. The experiment in a line: Heart organoid formation from embryoid bodies on LN/ET gel in the presence of FGF protein. The conditions noted are these: bFGF instead of FGF4; not shown in the figure. Here is the method:
For the purpose of attempting to mimic such a process of developing a heart in the living body, as shown in the lower stage of FIG. 1, first, mouse ES cells were cultured in a low-binding U-bottom 96-well plate in the absence of leukemia inhibitory factor (LIP) to obtain complete embryoid bodies (EB) (1000 to 5000 cells/embryoid body). […]

For assay [3], the system named is human iPS cells (253G1) embryoid bodies. The experiment in a line: Formation of heart and lung organoids from human iPS cells under conditions I to IV. The conditions noted are these: embryoid bodies on gelated LN/ET complex; at collection (day 13 of culture or later); FIG. 49.

Take `CC(C)NCC(O)c1ccc(O)c(O)c1` (stereo not drawn) [isoproterenol]: the “change of Ca signal cycle in heart organoids” value in assay [1] was “shorten the Ca signal cycle (tachycardia-like)”.
Consider “bFGF: fibroblast growth factor 2 (FGF2, bFGF)”, for which the “production of beating heart organoid” value in assay [2] is reported as “successfully produced the same beating heart organoid”.

B1: condition II: additive to medium: FGF4 (30 ng/mL) (protein, UniProt P08620 31-206, looked up)
Fibroblast growth factor 4: APTAPNGTLEAELERRWESLVALSLARLPVAAQPKEAAVQSGAGDYLLGIKRLRRLYCNVGIGFHLQALPDGRIGGAHADTRDSLLELSPVERGVVSIFGVASRFFVAMSSKGKLYGSPFFTDECTFKEILLPNNYNAYESYKYPGMFIALSKNGKTKKGNRVSPTMKVTHFLPRL
Regarding B1, the “efficiency of producing heart organoids and lung organoids (combined heart and lung, separated heart and lung)” value in assay [3] is 62.5%.
